According to paper PMC11882969 (Nature Communications, 2025):
“And” between values parts separate entries of the source, which are not always exact repeats. Equal entries are not always repeated. Where two headings read alike, the source gives them in different places.

Experiments:
[1] = biological target: T1, CB1 (rCB1) (Rattus norvegicus, UniProt P20272); assay: Radioligand competition binding, [3H]-CP-55,940, rat brain membranes
[2] = biological target: T2, hCB1 (Homo sapiens, UniProt P21554); assay: bioSensAll ebBRET signaling profiling, hCB1; format: cell-based; set-up: host or cells: HEK293SL cells, transient PEI transfection; conditions: for Gi1 hCB1 response: Gi1 biosensor; for Gi1 hCB1 / GoB hCB1: single replicate values, FigS6a; for EC50: read-out: EC50 [95% CI]; for Emax: normalized to CP-55,940
[3] = biological target: T1, CB1 (rCB1); assay: Single-point radioligand displacement screen; format: binding
[4] = biological target: T2, hCB1; assay: Lance Ultra cAMP accumulation assay, CHO cells; format: cell-based; set-up: expressed in transfected cells; conditions: for cAMP assay signal, concentration-response point: replicates, sheet FigureS2a; for normalised cAMP response, concentration-response (Figure2f), replicate values: log[Compound;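 as to all read-outs here: human CB1R stably expressed in CHO cells, ligands co-incubated with forskolin at room temperature, read-out is lowering of forskolin-stimulated cAMP accumulation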
Method: The inhibition of forskolin-stimulated cAMP accumulation assays was carried out using PerkinElmer’s Lance Ultra cAMP kit following the manufacturer’s protocol. In brief, CHO cells stably expressing human CB1R (provided by the lab of Laura Bohn) were harvested by incubation with Versene (ThermoFisher Scientific, Waltham, MA) for 10 min, washed once with Hank’s Balanced Salt Solution, and resuspended in stimulation buffer at ~200 cells/μL density. The ligands at eight different concentrations (0.001-10,000 nM) in stimulation buffer (5 μL) containing forskolin (2 μM final concentration) were added to a 384-well plate followed by the cell suspension (5 μL; ~1000 cells/well). The plate was incubated for 30 min at room temperature. Eu-cAMP tracer (5 μL) and Ulight-anti-cAMP (5 μL) working solutions were then added to each well, and the plate was incubated at room temperature for an additional 60 min. Results were measured on a Perkin-Elmer EnVision plate reader. The EC50 values were determined by nonlinear regression analysis using Graphpad Prism 9 and are expressed as the mean of three experiments, each performed in triplicate.

T2 sequence (P21554 whole entry): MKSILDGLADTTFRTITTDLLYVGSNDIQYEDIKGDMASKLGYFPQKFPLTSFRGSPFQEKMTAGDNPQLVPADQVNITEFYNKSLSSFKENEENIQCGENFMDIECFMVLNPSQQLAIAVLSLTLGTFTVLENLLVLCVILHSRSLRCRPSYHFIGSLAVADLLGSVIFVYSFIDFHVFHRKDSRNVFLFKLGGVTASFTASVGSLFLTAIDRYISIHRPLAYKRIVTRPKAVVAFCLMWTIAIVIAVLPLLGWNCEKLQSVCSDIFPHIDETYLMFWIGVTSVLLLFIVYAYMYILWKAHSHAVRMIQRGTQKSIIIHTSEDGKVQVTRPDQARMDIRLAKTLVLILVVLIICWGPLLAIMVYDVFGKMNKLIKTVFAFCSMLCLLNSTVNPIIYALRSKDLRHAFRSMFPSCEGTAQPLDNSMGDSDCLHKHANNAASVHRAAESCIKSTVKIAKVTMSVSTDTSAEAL
T1 sequence (P20272 whole entry): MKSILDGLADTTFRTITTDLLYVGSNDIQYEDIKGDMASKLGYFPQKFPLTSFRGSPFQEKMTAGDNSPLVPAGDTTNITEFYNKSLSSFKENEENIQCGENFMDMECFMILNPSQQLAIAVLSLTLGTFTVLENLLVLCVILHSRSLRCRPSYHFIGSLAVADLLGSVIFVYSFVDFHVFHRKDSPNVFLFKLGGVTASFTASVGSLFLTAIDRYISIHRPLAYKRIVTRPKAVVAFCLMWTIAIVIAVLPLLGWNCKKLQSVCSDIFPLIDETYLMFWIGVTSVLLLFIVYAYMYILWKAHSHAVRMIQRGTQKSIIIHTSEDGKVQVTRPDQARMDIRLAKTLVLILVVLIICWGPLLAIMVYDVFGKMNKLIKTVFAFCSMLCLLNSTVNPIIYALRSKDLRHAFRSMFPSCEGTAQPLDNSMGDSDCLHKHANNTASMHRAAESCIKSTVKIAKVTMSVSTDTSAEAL

COC(=O)C(NC(=O)c1cc(C)n(-c2cccc(F)c2)n1)c1cccs1 (centres unmarked) [‘51486]
Ki [1]: 0.794 µM | LLE (lipophilic ligand efficiency) ([1]; LLE = pIC50 − clogP): 3.1 | binding free energy ΔG ([1]; from measured Ki): 35.1 kJ/mol | LE (ligand efficiency) ([1]; from rCB1 affinity): 0.32 | radioligand binding remaining, competition curve (Figure2e), replicate values ([1]; log[drug] -3.643): 5.353 and 8.4728 and 6.119 | radioligand binding remaining, competition curve (Figure2e), replicate values ([1]; log[drug] -4.35655): 7.365 and 2.197 and 0.3487 | radioligand binding remaining, competition curve (Figure2e), replicate values ([1]; log[drug] -5.07): 21.0991 and 15.6904 and 16.8933 | radioligand binding remaining, competition curve (Figure2e), replicate values ([1]; log[drug] -5.783): 52.9233 and 50.4184 and 37.5523 | radioligand binding remaining, competition curve (Figure2e), replicate values ([1]; log[drug] -6.496): 81.1314 and 84.728 and 72.9079 | radioligand binding remaining, competition curve (Figure2e), replicate values ([1]; log[drug] -7.21): 91.0402 and 102.441 and 95.6067 | radioligand binding remaining, competition curve (Figure2e), replicate values ([1]; log[drug] -7.923): 92.6538 and 100.244 and 104.603 | radioligand binding remaining, competition curve (Figure2e), replicate values ([1]; log[drug] -8.636): 97.1716 and 91.2657 | pKi [95% CI] ([1]; rCB1): 6.14 [6.01 –6.26] | Gi1 hCB1 response ([2]; Log [Compound] (M) -4.22186): 123.512 | Gi1 hCB1 response ([2]; Log [Compound] (M) -4.63927): 98.3102 | Gi1 hCB1 response ([2]; Log [Compound] (M) -5.05788): 74.9216 | Gi1 hCB1 response ([2]; Log [Compound] (M) -5.47381): 77.764 | Gi1 hCB1 response ([2]; Log [Compound] (M) -5.89285): 72.6387 | Gi1 hCB1 response ([2]; Log [Compound] (M) -6.31878): 38.0146 | Gi1 hCB1 response ([2]; Log [Compound] (M) -6.72585): 33.2921 | Gi1 hCB1 response ([2]; Log [Compound] (M) -7.14267): -1.511 | Gi1 hCB1 response ([2]; Log [Compound] (M) -7.55284): -15.3428 | Gi1 hCB1 response ([2]; Log [Compound] (M) -8): 9.7692 | Gi1 hCB1 response ([2]; Log [Compound] (M) -8.22186): 0.839 | Gi1 hCB1 response ([2]; Log [Compound] (M) -8.39794): -12.3884 | Gi1 hCB1 response ([2]; Log [Compound] (M) -8.68787): 2.204 | Gi1 hCB1 response ([2]; Log [Compound] (M) -9.15521): -11.247 | Gi1 hCB1 response ([2]; Log [Compound] (M) -9.61989): -13.1718 | Gi1 hCB1 response ([2]; Log [Compound] (M) -10.0969): -6.323 | Gi1 hCB1 response ([2]; Log [Compound] (M) -10.5529): -17.8943 | Gi1 hCB1 response ([2]; Log [Compound] (M) -11.0177): -4.935 | Gi1 hCB1 response ([2]; Log [Compound] (M) -11.4949): -5.54 | Gi1 hCB1 response ([2]; Log [Compound] (M) -11.9208): -6.838 | Gi1 hCB1 response ([2]; Log [Compound] (M) -12.3979): -1.466 | Gi1 hCB1 response ([2]; Log [Compound] (M) -12.8861): -7.42 | Gi1 hCB1 response ([2]; Log [Compound] (M) -13, individual replicate values): -9.747 and -10.7098 | Gi1 hCB1 ([2]; Log [Compound] (M) -4.22186): 75.4915 | GoB hCB1 ([2]; Log [Compound] (M) -4.22186): 69.3873 | Gi1 hCB1 ([2]; Log [Compound] (M) -4.63927): 68.0453 | GoB hCB1 ([2]; Log [Compound] (M) -4.63927): 69.0456 | Gi1 hCB1 ([2]; Log [Compound] (M) -5.05788): 65.332 | GoB hCB1 ([2]; Log [Compound] (M) -5.05788): 68.5421 | Gi1 hCB1 ([2]; Log [Compound] (M) -5.47381): 58.8724 | GoB hCB1 ([2]; Log [Compound] (M) -5.47381): 63.2909 | Gi1 hCB1 ([2]; Log [Compound] (M) -5.89285): 46.1383 | GoB hCB1 ([2]; Log [Compound] (M) -5.89285): 45.7032 | Gi1 hCB1 ([2]; Log [Compound] (M) -6.31878): 23.9076 | GoB hCB1 ([2]; Log [Compound] (M) -6.31878): 23.3139 | Gi1 hCB1 ([2]; Log [Compound] (M) -6.72585): 13.671 | GoB hCB1 ([2]; Log [Compound] (M) -6.72585): 15.8509 | Gi1 hCB1 ([2]; Log [Compound] (M) -7.14267): 3.866 | GoB hCB1 ([2]; Log [Compound] (M) -7.14267): 8.064 | Gi1 hCB1 ([2]; Log [Compound] (M) -7.55284): 0.7982 | GoB hCB1 ([2]; Log [Compound] (M) -7.55284): 4.971 | Gi1 hCB1 ([2]; Log [Compound] (M) -8): -0.466 | GoB hCB1 ([2]; Log [Compound] (M) -8): 0.09744 | Gi1 hCB1 ([2]; Log [Compound] (M) -8.22186): 0.05819 | GoB hCB1 ([2]; Log [Compound] (M) -8.22186): -3.517 | Gi1 hCB1 ([2]; Log [Compound] (M) -8.39794): 0.459 | GoB hCB1 ([2]; Log [Compound] (M) -8.39794): -0.9816 | Gi1 hCB1 ([2]; Log [Compound] (M) -8.68787): -0.3118 | GoB hCB1 ([2]; Log [Compound] (M) -8.68787): -2.33 | Gi1 hCB1 ([2]; Log [Compound] (M) -9.15521): 0.7365 | GoB hCB1 ([2]; Log [Compound] (M) -9.15521): -2.906 | Gi1 hCB1 ([2]; Log [Compound] (M) -9.61989): 0.5515 | GoB hCB1 ([2]; Log [Compound] (M) -9.61989): -0.9276 | Gi1 hCB1 ([2]; Log [Compound] (M) -10.0969): 1.1836 | GoB hCB1 ([2]; Log [Compound] (M) -10.0969): -3.176 | Gi1 hCB1 ([2]; Log [Compound] (M) -10.5529): 0.2124 | GoB hCB1 ([2]; Log [Compound] (M) -10.5529): -1.989 | Gi1 hCB1 ([2]; Log [Compound] (M) -11.0177): 0.3974 | GoB hCB1 ([2]; Log [Compound] (M) -11.0177): -1.521 | Gi1 hCB1 ([2]; Log [Compound] (M) -11.4949): 0.1507 | GoB hCB1 ([2]; Log [Compound] (M) -11.4949): -1.827 | Gi1 hCB1 ([2]; Log [Compound] (M) -11.9208): -0.03431 | GoB hCB1 ([2]; Log [Compound] (M) -11.9208): 0.2953 | Gi1 hCB1 ([2]; Log [Compound] (M) -12.3979): -0.06514 | GoB hCB1 ([2]; Log [Compound] (M) -12.3979): -1.179 | Gi1 hCB1 ([2]; Log [Compound] (M) -12.8861): -0.466 | GoB hCB1 ([2]; Log [Compound] (M) -12.8861): -2.798 | Gi1 hCB1 ([2]; Log [Compound] (M) -13): -0.8976 and -0.03431 | GoB hCB1 ([2]; Log [Compound] (M) -13): -1.143 and -0.8017 | pEC50 [95% CI] ([2]; hCB1 Gi1): 6.1 [6.0 – 6.1] | pEC50 [95% CI] ([2]; hCB1 GoB): 6.2 [6.1 – 6.2] | pEC50 [95% CI] ([2]; hCB1 Gz): 6.0 [5.5 – 6.4] | EC50 ([2]; hCB1 Gi1): 0.849 µM | EC50 ([2]; hCB1 GoB): 0.711 µM | EC50 ([2]; hCB1 Gz): 1.12 µM | Emax ([2]; read-out: Emax [95% CI], hCB1 Gi1): 73% | Emax ([2]; read-out: Emax [95% CI], hCB1 GoB): 74% | Emax ([2]; read-out: Emax [95% CI], hCB1 Gz): 130% | % 1H-CP-55,940 displacement (mean) from single point screen ([3]; 10 µM, 1 µM or 300 nM by cell colour (not visible)): 90.60% | rep1_displacement ([3]; Figure 1c source data, replicate 1): 90.6 | cAMP assay signal, concentration-response point ([4]; compound 0.01 nM): 0.003086 and 0.002857 and 0.002584 | cAMP assay signal, concentration-response point ([4]; compound 0.1 nM): 0.003236 and 0.002959 and 0.003953* | cAMP assay signal, concentration-response point ([4]; compound 1 nM): 0.003012 and 0.002545 and 0.00241 | cAMP assay signal, concentration-response point ([4]; compound 10 nM): 0.003401 and 0.002801 and 0.00274 | cAMP assay signal, concentration-response point ([4]; compound 100 nM): 0.002632 and 0.003106 and 0.002457 | cAMP assay signal, concentration-response point ([4]; compound 1000 nM): 0.002532 and 0.002088 and 0.00216 | cAMP assay signal, concentration-response point ([4]; compound 10000 nM): 0.001565 and 0.001538 and 0.001686 | cAMP assay signal, concentration-response point ([4]; compound 100000 nM): 0.001247 and 0.001041 and 0.0009747 | agonism, inhibition of forskolin-stimulated cAMP ([4]; hCB1-expressing cells, in words): modest agonism | normalised cAMP response, concentration-response (Figure2f), replicate values ([4]; M] -5): 61.1478 and 37.2808 and 60.3783 and 74.6524 | normalised cAMP response, concentration-response (Figure2f), replicate values ([4]; M] -6): 88.8547 and 72.8445 and 99.0012 and 98.4034 | normalised cAMP response, concentration-response (Figure2f), replicate values ([4]; M] -7): 93.8057 and 91.7167 and 95.78 and 96.566 | normalised cAMP response, concentration-response (Figure2f), replicate values ([4]; M] -8): 85.2922 and 84.747 and 110.313 and 100.436 | normalised cAMP response, concentration-response (Figure2f), replicate values ([4]; M] -9): 104.899 and 94.89 and 101.982 and 109.312 | normalised cAMP response, concentration-response (Figure2f), replicate values ([4]; M] -10): 98.9432 and 97.9859 and 99.2252 and 102.121 | normalised cAMP response, concentration-response (Figure2f), replicate values ([4]; M] -11): 94.0694 and 79.1039 and 104.119 and 97.9362 | normalised cAMP response, concentration-response (Figure2f), replicate values ([4]; M] -12): 99.9579 and 92.8829 and 101.899 and 97.9047
